Experimental data as given in the kinase profiling compilation of Christmann-Franck et al. (2016).

Legend:
[1] = molecular target: PRKDC (human) (UniProt P78527); experiment: radiometric filter-binding kinase assay
[2] = molecular target: AXL (human) (UniProt P30530); experiment: radiometric filter-binding kinase assay
[3] = molecular target: TEK (human) (UniProt Q02763); experiment: radiometric filter-binding kinase assay
[4] = molecular target: MET (human) (UniProt P08581); experiment: radiometric filter-binding kinase assay
[5] = molecular target: PDPK1 (human) (UniProt O15530); experiment: radiometric filter-binding kinase assay
[6] = molecular target: CSF1R (human) (UniProt P07333); experiment: radiometric filter-binding kinase assay
[7] = molecular target: KDR (human) (UniProt P35968); experiment: radiometric filter-binding kinase assay
[8] = molecular target: CSNK1G2 (human) (UniProt P78368); experiment: KINOMEscan competition binding; conditions: compound 1.0 µM
[9] = molecular target: TESK1 (human) (UniProt Q15569); experiment: KINOMEscan competition binding; conditions: compound 1.0 µM
[10] = molecular target: CAMKK1 (human) (UniProt Q8N5S9); experiment: KINOMEscan competition binding; conditions: compound 1.0 µM
[11] = molecular target: CAMK4 (human) (UniProt Q16566); experiment: KINOMEscan competition binding; conditions: compound 1.0 µM
[12] = molecular target: GRK4 (human) (UniProt P32298); experiment: KINOMEscan competition binding; conditions: compound 1.0 µM
[13] = molecular target: CHUK (human) (UniProt O15111); experiment: KINOMEscan competition binding; conditions: compound 1.0 µM

Sequence of CAMKK1 (human) (Q8N5S9 whole entry, looked up): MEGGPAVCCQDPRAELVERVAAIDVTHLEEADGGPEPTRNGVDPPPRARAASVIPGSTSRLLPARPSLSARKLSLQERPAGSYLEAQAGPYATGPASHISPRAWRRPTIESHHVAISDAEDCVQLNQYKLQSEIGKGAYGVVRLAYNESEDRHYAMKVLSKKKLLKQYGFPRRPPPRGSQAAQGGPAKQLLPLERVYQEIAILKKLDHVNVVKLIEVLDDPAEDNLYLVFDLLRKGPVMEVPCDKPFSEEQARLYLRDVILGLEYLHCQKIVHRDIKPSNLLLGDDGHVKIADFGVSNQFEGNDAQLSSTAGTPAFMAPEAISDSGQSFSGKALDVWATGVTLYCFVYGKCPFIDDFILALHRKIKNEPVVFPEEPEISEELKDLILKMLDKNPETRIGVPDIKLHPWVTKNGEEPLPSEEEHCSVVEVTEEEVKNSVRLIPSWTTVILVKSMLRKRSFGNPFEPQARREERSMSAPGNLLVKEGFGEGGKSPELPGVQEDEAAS
Sequence of CAMK4 (human) (Q16566 whole entry, looked up): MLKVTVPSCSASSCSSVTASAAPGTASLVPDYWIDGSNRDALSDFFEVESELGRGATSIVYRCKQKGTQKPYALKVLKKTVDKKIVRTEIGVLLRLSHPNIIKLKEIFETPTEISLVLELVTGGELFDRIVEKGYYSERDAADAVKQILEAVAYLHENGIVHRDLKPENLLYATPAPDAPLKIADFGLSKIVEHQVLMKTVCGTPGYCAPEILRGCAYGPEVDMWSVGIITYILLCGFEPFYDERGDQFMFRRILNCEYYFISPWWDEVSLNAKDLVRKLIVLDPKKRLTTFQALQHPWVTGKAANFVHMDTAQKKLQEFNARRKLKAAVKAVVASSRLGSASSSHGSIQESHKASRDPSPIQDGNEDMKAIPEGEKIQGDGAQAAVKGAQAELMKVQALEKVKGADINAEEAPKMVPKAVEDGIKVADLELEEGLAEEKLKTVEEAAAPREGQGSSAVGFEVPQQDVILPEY
Sequence of KDR (human) (P35968 whole entry, looked up): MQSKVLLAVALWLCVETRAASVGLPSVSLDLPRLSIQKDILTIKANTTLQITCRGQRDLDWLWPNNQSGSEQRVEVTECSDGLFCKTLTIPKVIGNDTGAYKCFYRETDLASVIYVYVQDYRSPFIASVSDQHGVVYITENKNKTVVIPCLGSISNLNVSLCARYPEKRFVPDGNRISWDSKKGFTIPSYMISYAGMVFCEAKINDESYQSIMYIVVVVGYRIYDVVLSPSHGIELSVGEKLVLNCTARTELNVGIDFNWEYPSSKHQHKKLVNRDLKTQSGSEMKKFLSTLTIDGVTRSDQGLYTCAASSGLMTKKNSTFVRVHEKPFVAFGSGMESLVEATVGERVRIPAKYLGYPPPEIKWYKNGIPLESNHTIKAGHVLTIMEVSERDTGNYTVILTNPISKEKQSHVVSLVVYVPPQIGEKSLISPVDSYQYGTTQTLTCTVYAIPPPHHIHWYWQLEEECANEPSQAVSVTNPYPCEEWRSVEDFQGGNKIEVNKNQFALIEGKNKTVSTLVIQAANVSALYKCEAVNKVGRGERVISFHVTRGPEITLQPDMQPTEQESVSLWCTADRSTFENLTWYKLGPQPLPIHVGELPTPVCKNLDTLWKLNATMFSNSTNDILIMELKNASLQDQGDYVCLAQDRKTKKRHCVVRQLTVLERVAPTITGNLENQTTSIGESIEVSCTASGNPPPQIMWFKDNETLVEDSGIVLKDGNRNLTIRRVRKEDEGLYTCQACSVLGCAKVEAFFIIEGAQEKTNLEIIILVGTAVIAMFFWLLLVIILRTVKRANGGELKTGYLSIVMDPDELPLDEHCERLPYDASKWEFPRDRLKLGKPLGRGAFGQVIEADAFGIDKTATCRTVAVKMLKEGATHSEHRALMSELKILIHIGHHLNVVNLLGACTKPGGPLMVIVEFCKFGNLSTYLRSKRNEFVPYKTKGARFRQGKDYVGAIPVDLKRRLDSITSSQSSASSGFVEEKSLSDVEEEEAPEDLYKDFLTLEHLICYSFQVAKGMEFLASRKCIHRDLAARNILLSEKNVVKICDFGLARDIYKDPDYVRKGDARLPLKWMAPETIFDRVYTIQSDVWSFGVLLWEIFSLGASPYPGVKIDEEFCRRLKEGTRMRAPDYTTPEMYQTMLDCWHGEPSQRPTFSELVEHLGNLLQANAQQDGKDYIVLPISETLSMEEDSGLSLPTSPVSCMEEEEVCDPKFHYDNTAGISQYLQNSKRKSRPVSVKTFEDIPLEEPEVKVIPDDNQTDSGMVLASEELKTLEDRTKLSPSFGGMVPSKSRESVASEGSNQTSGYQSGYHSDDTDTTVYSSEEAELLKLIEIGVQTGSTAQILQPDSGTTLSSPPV
Sequence of TESK1 (human) (Q15569 whole entry, looked up): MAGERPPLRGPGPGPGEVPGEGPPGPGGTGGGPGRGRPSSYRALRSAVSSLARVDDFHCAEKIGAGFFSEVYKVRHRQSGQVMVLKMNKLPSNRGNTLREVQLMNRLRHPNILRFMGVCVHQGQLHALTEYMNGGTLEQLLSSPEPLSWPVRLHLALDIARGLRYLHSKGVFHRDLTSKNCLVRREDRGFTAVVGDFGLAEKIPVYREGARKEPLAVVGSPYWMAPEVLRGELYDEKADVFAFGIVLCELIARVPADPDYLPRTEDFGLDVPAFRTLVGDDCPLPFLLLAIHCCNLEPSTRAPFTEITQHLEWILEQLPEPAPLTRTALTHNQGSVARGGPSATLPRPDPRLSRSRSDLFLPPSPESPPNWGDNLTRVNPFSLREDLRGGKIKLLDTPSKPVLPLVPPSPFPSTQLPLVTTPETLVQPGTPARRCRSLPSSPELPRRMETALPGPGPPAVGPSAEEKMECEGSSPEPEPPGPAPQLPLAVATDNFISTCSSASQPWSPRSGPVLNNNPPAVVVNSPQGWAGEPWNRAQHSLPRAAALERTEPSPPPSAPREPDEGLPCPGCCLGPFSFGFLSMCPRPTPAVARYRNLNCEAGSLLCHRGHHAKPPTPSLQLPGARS
Sequence of CSF1R (human) (P07333 whole entry, looked up): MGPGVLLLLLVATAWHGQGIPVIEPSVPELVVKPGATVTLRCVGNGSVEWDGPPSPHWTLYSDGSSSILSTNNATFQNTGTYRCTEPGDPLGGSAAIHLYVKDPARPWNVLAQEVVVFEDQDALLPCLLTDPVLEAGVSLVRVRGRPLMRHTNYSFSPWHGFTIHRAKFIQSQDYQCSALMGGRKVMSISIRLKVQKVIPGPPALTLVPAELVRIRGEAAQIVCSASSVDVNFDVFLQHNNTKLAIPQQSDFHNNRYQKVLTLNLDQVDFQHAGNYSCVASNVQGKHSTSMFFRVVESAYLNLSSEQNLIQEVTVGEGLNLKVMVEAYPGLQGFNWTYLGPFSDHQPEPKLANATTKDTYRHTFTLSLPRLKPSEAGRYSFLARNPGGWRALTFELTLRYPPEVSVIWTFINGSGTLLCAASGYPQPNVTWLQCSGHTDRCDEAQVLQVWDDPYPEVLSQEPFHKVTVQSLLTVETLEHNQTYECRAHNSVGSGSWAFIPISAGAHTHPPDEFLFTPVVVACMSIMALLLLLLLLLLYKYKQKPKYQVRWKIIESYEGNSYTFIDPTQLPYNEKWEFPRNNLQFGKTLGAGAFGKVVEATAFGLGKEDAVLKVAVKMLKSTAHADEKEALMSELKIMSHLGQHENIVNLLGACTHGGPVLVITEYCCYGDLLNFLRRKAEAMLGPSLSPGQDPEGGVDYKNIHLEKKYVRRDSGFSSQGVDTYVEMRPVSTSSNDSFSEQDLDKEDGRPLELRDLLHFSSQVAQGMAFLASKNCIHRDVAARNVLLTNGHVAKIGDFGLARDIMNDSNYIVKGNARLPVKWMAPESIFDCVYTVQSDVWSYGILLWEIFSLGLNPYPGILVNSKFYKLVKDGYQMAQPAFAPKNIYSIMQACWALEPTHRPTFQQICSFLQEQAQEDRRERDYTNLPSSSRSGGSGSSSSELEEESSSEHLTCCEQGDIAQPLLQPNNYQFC
Sequence of TEK (human) (Q02763 whole entry, looked up): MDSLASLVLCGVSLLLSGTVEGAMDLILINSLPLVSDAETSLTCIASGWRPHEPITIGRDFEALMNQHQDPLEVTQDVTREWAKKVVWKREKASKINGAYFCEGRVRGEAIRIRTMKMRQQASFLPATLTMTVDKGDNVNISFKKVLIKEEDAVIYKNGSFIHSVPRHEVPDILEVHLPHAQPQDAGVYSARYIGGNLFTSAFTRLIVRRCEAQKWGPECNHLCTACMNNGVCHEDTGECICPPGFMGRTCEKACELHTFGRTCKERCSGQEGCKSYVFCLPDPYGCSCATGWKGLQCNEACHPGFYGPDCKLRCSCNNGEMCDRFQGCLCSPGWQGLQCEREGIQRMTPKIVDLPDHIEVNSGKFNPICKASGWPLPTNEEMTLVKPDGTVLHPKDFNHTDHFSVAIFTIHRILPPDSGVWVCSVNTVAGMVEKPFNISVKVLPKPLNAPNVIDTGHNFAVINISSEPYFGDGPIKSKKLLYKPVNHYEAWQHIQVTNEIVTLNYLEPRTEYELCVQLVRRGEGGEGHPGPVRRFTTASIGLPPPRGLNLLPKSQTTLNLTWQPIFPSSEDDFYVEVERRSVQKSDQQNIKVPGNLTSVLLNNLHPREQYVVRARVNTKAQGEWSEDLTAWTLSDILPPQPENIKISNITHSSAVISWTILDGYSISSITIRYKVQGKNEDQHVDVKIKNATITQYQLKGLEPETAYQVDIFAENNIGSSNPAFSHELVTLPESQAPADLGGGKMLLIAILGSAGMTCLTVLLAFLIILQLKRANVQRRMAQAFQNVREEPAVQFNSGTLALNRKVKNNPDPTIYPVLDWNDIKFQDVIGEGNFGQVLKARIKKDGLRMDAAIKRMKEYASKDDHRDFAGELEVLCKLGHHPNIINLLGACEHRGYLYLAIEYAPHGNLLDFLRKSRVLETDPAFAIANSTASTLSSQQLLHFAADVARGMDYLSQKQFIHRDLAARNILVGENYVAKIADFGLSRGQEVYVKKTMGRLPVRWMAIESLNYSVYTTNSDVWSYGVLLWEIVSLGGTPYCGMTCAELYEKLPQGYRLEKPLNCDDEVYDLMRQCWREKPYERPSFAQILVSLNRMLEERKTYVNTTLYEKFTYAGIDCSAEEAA

**Q.** For `Nc1cc(C(F)(F)F)c(-c2cc(N3CCOCC3)nc(N3CCOCC3)n2)cn1`, which IC50 [1] is on record?
**A.** The IC50 was greater than 10 µM.

**Q.** What about the IC50 [2] of the same molecule?
**A.** Its IC50 is greater than 10 µM.

**Q.** And the IC50 [3]?
**A.** The IC50 was greater than 10 µM.

**Q.** And the IC50 [4]?
**A.** Its IC50 is greater than 10 µM.

**Q.** And the IC50 [5]?
**A.** The IC50 was greater than 10 µM.

**Q.** What about the IC50 [6] of the same molecule?
**A.** Its IC50 is 0.582 µM.

**Q.** And the IC50 [7]?
**A.** Its IC50 is greater than 10 µM.

**Q.** What about the inhibition of binding [8] of the same molecule?
**A.** Its inhibition of binding is 0%.

**Q.** And the inhibition of binding [9]?
**A.** Its inhibition of binding is 0%.

**Q.** And the inhibition of binding [10]?
**A.** Its inhibition of binding is 0%.

**Q.** And the inhibition of binding [11]?
**A.** The inhibition of binding was 50%.

**Q.** What about the inhibition of binding [12] of the same molecule?
**A.** Its inhibition of binding is 0%.

**Q.** What about the inhibition of binding [13] of the same molecule?
**A.** The inhibition of binding was 29%.
